Columns and labels:
C57BL/6J mice = experiment: Effect of treatment on the conditioned place preference induced by heroin; type: in vivo; conditions: for Distance travelled in the drug-paired compartment / Distance travelled in the two compartments (Drug + Vehicle) / Distance travelled in the vehicle-paired compartment / Distance travelled, drug-paired minus vehicle-paired compartment / Time spent in the drug-paired compartment / Time spent in the vehicle-paired compartment / Time spent, drug-paired minus vehicle-paired compartment: mean
Text: Conditioned place preference (CPP) is a widely used procedure for studying the potential addictive effect of drugs. CPP is based upon the tendency of rodents to approach a stimulus that has previously been paired with an incentive state induced by a drug. A drug that induces a CPP may be suspected to present reinforcing effects that could lead to addiction. Numerous addictive drugs, such as opiate agonists or stimulants induce a CPP and a behavioral sensitization.
The effect of mazindol on place preference was examined in C57BL/6J mice using a method similar to the one used by Schlussman et al. (9).
The third experiments consisted in examining the effects of mazindol and D-amphetamine (at doses chosen from results of the first part of the study) on the place preference induced by heroin at a dose chosen from results of the second experiment, which was 1.25 mg/kg. Mazindol (0.125, 0.25 and 0.5 mg/kg) and D-amphetamine (0.5 mg/kg) were tested.
Therefore, it was decided to perform an additional experiment to examine the effects on place preference induced by heroin of mazindol at 1 and 2 mg/kg and of D-amphetamine at 1 mg/kg.
Following the habituation session (on day 1), animals (N=72) were pseudo-randomly assigned to two groups, a Control group (N=12) and a Heroin group (N=60), in a way that there was no significant difference between the two groups for the total distance travelled in the apparatus and for the percentage of time spent and the percentage distance travelled in the grey compartment and in the striped compartment.
Animals received the following treatments immediately before drug sessions: • Control group: vehicle • Heroin group: heroin (1.25 mg/kg)
Following the last conditioning session, the Heroin group was pseudo-randomly divided into 5 groups (N=12/group) in a way that there was no significant difference between groups for the total distance travelled in the apparatus and for the percentage of time spent and the percentage distance travelled in the grey compartment and in the striped compartment in habituation session, for the distance travelled in the drug-paired and in the vehicle-paired compartments in conditioning sessions and for the proportion of striped drug-paired compartments.
Animals received the following treatments before preference session: • Control group: vehicle of mazindol, i.p. 60 min before testing. • Hero group: vehicle of mazindol, i.p. 60 min before testing. • Hero-A 0.5 group: D-amphetamine (0.5 mg/kg), i.p. 30 min before testing. • Hero-Mz 0.125 group: mazindol (0.125 mg/kg), i.p. 60 min before testing. • Hero-Mz 0.25 group: mazindol (0.25 mg/kg), i.p. 60 min before testing. • Hero-Mz 0.5 group: mazindol (0.5 mg/kg), i.p. 60 min before testing.
Following the habituation session (on day 1), animals (N=72) were pseudo-randomly assigned to three groups, a Control group (N=12), a Heroin group (N=48) and a Mazindol group (N=12), in a way that there was no significant difference between the three groups for the total distance travelled in the apparatus and for the percentage of time spent and the percentage distance travelled in the grey compartment and in the striped compartment.
Animals received the following treatments before drug sessions: • Control group: vehicle, i.p. immediately before session. • Heroin group: heroin (1.25 mg/kg), i.p. immediately before session. • MAZ 2 group: mazindol (2 mg/kg), i.p. 60 min before session.
Following the last conditioning session, the Heroin group was pseudo-randomly divided into 4 groups (N=12/group) in a way that there is no significant difference between groups for the total distance travelled in the apparatus and for the percentage of time spent and the percentage distance travelled in the grey compartment and in the striped compartment in habituation session, for the distance travelled in the drug-paired and in the vehicle-paired compartments in conditioning sessions and for the proportion of striped drug-paired compartments. […]

Sprague-Dawley rats = experiment: Naloxone precipitated withdrawal syndrome of heroin; type: in vivo
Procedure: The abrupt cessation of chronic opiate use results in a well characterized withdrawal syndrome with symptoms that include pain sensitivity, dysphoria, irritability, restlessness, insomnia, diarrhea and hyperventilation. In the present model, the naloxone-precipitated withdrawal syndrome is measured in rodents. Animals are chronically treated with a drug, e.g. morphine or heroin. Opiate withdrawal syndrome is elicited by an acute injection of the opiate antagonist Naloxone.
The effect of mazindol on heroin withdrawal syndrome elicited by naloxone was examined in Sprague-Dawley rats using a method similar to the one used by Jiang et al. (10),
Animals were subdivided into two groups. One group received heroin two i.p. injections/day for 12 consecutive days and a single injection on the 13th day (total: 25 injections) as exposed in Table 3 group received saline instead of heroin following the same protocol.
On day 13, animals received treatments and were tested according to the following time schedule: • T=0: i.p. injection of heroin (15 mg/kg) or vehicle. • T=2.5 h: animals individually placed in a transparent Plexiglas observation boxes (40×40×40 cm). • T=3.5 h: i.p. injection of treatment (see below). • T=4 h: i.p. injection of naloxone (5 mg/kg), start of test: observation of withdrawal symptoms as indicated in Table 4. • T=5 h: end of test, animals placed back into their home cages.
Animals received the following treatments at T 3.5 h (i.e. 30 min before injection of naloxone and observation of symptoms): • 1) Animals treated with saline during the intoxication period (days 1-12) and at T0 on day 13: • Saline group (N=8): saline (0.9% NaCl). • 2) Animals treated with […] during the intoxication period (days 1-12) and at T0 on day 13: • Hero group (N=14): saline (0.9% NaCl). • Amph 1 group (N=4): D-amphetamine (1 mg/kg). • Maz 0.125 group (N=5): mazindol (0.125 mg/kg). • Maz 0.25 group (N=6): mazindol (0.25 mg/kg). • Maz 0.5 group (N=6): mazindol (0.5 mg/kg). • Maz 1 group (N=6): mazindol (1 mg/kg). • Maz 2 group (N=5): mazindol (2 mg/kg).
A weighting factor was ascribed for each sign from which a score was calculated.
Examples: • Body weight before naloxone injection=241 g; after naloxone injection=236 g: • Weight loss score=2=100×(241−236)/241 • Number of escape attempts=8: • Score for escape attempts=2 • Profuse salivation present: • Score for profuse salivation
A global withdrawal score was then calculated: • Global score=the sum of the scores

[1] = Hero-A 0.5: heroin 1.25 mg/kg conditioning, D-amphetamine 0.5 mg/kg i.p. 30 min before preference session
[2] = Hero-A 1: heroin 1.25 mg/kg conditioning, D-amphetamine 1 mg/kg i.p. 30 min before preference session
[3] = Amph 1: heroin-treated rats, D-amphetamine 1 mg/kg i.p. 30 min before naloxone 5 mg/kg, mean

## C[C@H](N)Cc1ccccc1.C[C@H](N)Cc1ccccc1.O=S(=O)(O)O [D-amphetamine, D-amphetamine sulfate]
C57BL/6J mice; D-amphetamine 0.5 mg/kg
  effect on the heroin-induced increase of distance travelled in the drug-paired compartment: had no effect
  effect on the heroin-induced increase of time spent in the drug-paired compartment: non-significantly reduced
C57BL/6J mice; D-amphetamine 1 mg/kg
  effect on the heroin-induced increases of time spent and distance travelled in the drug-paired compartment: did not modify
C57BL/6J mice; D-amphetamine 0.5, 1 mg/kg i.p. before preference session
  effect on the place preference induced by heroin: do not show a reliable effect
C57BL/6J mice; D-amphetamine 0.5 and 1 mg/kg i.p. before preference session
  total distance travelled in two compartments (FIG. 3): at 0.5 mg/kg, but not at 1 mg/kg decreased the total distance travelled in two compartments
C57BL/6J mice; [1]
  Distance travelled in the drug-paired compartment: 6797.2 cm
  Distance travelled in the two compartments (Drug + Vehicle): 11379.9 cm
  Distance travelled in the vehicle-paired compartment: 4582.7 cm
  Distance travelled, drug-paired minus vehicle-paired compartment: 2214.6 cm
  Time spent in the drug-paired compartment: 984.5 s
  Time spent in the vehicle-paired compartment: 815.5 s
  Time spent, drug-paired minus vehicle-paired compartment: 168.9 s
C57BL/6J mice; [2]
  Distance travelled in the drug-paired compartment: 7416.7 cm
  Distance travelled in the two compartments (Drug + Vehicle): 13005.6 cm
  Distance travelled in the vehicle-paired compartment: 5588.9 cm
  Distance travelled, drug-paired minus vehicle-paired compartment: 1827.8 cm
  Time spent in the drug-paired compartment: 1048.3 s
  Time spent in the vehicle-paired compartment: 751.7 s
  Time spent, drug-paired minus vehicle-paired compartment: 296.5 s
Sprague-Dawley rats; [3]
  Abdominal constrictions score (Abd C): 0.0
  Abnormal posture score (Ab P): 0.0
  Chromodacryorrhea score (Chr): 5.0
  Diarrhea score (Diarr): 2.0
  Erection or ejaculation score (Er Ej): 0.0
  Escape attempts score (Esc A): 1.8
  Facial fasciculation or teeth chattering score (F F T C): 2.0
  Global Score: 22.5
  Irritability score (Irrit): 0.0
  Profuse salivation score (Pr Sal): 5.3
  Ptosis score (Ptos): 0.0
  Swallowing movements score (Sw M): 1.0
  Weight loss score (W Los): 2.0
  Wet dog shakes score (W D S): 3.5
Sprague-Dawley rats; D-amphetamine 1 mg/kg
  effect on naloxone precipitated withdrawal symptoms of heroin: did not reduce the withdrawal symptoms of heroin
Sprague-Dawley rats; D-amphetamine 1 mg/kg, increase not significant
  effect on chromodacryorrhea: tended to increase
